Measured values as given in US11058703B2, “Application of triacetyl-3-hydroxyphenyladenosine in preparation of pharmaceutical drug for preventing or treating non-alcoholic fatty liver disease” (priority 2015, dated 2021).

Tests used:
[1] = system: golden hamster with non-alcoholic fatty liver disease induced by high-fat diet; assay: Body weight and liver coefficient of golden hamster with non-alcoholic fatty liver disease induced by high-fat diet; assay type: in vivo, Syrian golden hamster; details: n = 10, mean ± standard error
Experimental: The animals were fasted overnight before the end of the experiment, anesthetized by intraperitoneal injection of 3% pentobarbital sodium, the abdominal cavity was exposed, and the liver was rapidly separated after blood was taken from the aorta abdominalis. One liver lobe was preserved, and two pieces of 1×1 cm^3 pieces were cut at a fixed site, one piece was embedded in OCT, quickly frozen in liquid nitrogen, and stored in liquid nitrogen or at −80° C.; and the other piece was placed in a 4% paraformaldehyde stationary liquid and stored at 4° C.

[2] = system: golden hamster with non-alcoholic fatty liver disease induced by high-fat diet; assay: Serum lipid indexes of golden hamster with non-alcoholic fatty liver disease induced by high-fat diet; assay type: in vivo, Syrian golden hamster; details: n = 10; for LDL-C: calculated LDL=TC-HDL-0.2TG
Experimental: (§1) After 5 days of adaptive feeding, animals were randomly divided into a normal control group (n=15), a high-fat diet group (n=15), an IMMH007 low-dose group (25 mg/kg, n=15), an IMMH007 medium-dose group (50 mg/kg, n=15), and an IMMH007 high-dose group (100 mg/kg, n=15), and given intragastric administration twice daily.
(§2) The animals were fasted for 12 hours, and 0.5 ml blood was collected from the angular vein and allowed to stand for 60 min, and centrifuged at 6000 g for 10 min, and the supernatant was aspirated as much as possible, and then centrifuged at 6000 g for 10 min. The absorbance values were measured according to the instructions of the total cholesterol (TC), triglycerides (TG), aspartate aminotransferase (AST), and alanine aminotransferase (ALT) kits, and the concentration of each index was calculated. 50 ul serum was mixed with 50 ul PEG6000 in a ratio of 1:1, vortexed uniformly, allowed to stand for 10 min, and centrifuged at 1900 g for 20 min at room temperature, and the supernatant was carefully pipetted, stored at 4° C., and measured for high density lipoprotein cholesterol (HDL-C) according to the instructions of the total cholesterol (TC) kit. The plasma low density lipoprotein (LDL) level was calculated by subtracting HDL-C and 0.2-fold TG levels from plasma total cholesterol TC, ie, LDL=TC-HLD-0.2TG.

[3] = system: golden hamster with non-alcoholic fatty liver disease induced by high-fat diet; assay: Lipid content in liver tissue of golden hamster with non-alcoholic fatty liver disease induced by high-fat diet; assay type: in vivo, Syrian golden hamster; details: n = 10
Experimental: 100 mg liver tissue was accurately weighed, and added with a triglyceride detection lysate, the tissue was homogenized by a homogenizer in an ice bath to no significant tissue mass, placed on ice for 5 min, transferred to a 1.5 ml centrifuge tube, and centrifuged at 14000 g for 10 min at 4° C., the supernatant was transferred and a portion of the supernatant was taken for protein quantification, and detected for its lipid content according to the instructions of the TC and TG detection kits.

[4] = system: golden hamster with non-alcoholic fatty liver disease induced by high-fat diet; details: in vivo
Experimental: as §1, §2

[5] = system: golden hamster with non-alcoholic fatty liver disease induced by high-fat diet; assay: Liver function (serum ALT, AST) of golden hamster with non-alcoholic fatty liver disease induced by high-fat diet; details: n = 10; for GPT: serum ALT; for GOT: serum AST
Experimental: as §1, §2

CC(=O)OCC1OC(n2cnc3c(Nc4cccc(O)c4)ncnc32)C(OC(C)=O)C1OC(C)=O (stereo not shown) [IMM-H007, triacetyl-3-hydroxyphenyladenosine]
Body Weight ([1]; IMM-H007 50 mg/kg): 170 ± 11 | Liver Organ Coefficient ([1]; IMM-H007 50 mg/kg): 0.0313 ± 0.002 | Liver Organ Coefficient ([1]; IMM-H007 100 mg/kg): 0.0291 ± 0.003 | Body Weight ([1]; IMM-H007 100 mg/kg, in g (unit assumed)): 177 ± 9 | Body Weight ([1]; IMM-H007 200 mg/kg): 166 ± 12 | Liver Organ Coefficient ([1]; IMM-H007 200 mg/kg): 0.0298 ± 0.002 | FFA ([2]; IMM-H007 50 mg/kg): 2324.6 ± 783.4 μEq/L | HDL-C ([2]; IMM-H007 50 mg/kg): 2.8 ± 0.4 mmol/L | TC ([2]; IMM-H007 50 mg/kg): 7.9 ± 1.0 mmol/L | TG ([2]; IMM-H007 50 mg/kg): 4.7 ± 1.9 mmol/L | FFA ([2]; IMM-H007 100 mg/kg): 1889.5 ± 386.5 μEq/L | HDL-C ([2]; IMM-H007 100 mg/kg): 2.8 ± 0.2 mmol/L | TC ([2]; IMM-H007 100 mg/kg): 7.0 ± 1.0 mmol/L | TG ([2]; IMM-H007 100 mg/kg): 4.3 ± 1.4 mmol/L | FFA ([2]; IMM-H007 200 mg/kg): 1497.6 ± 326.2 μEq/L | HDL-C ([2]; IMM-H007 200 mg/kg): 2.6 ± 0.5 mmol/L | TC ([2]; IMM-H007 200 mg/kg): 6.7 ± 1.0 mmol/L | TG ([2]; IMM-H007 200 mg/kg): 2.7 ± 0.8 mmol/L | LDL-C ([2]; IMM-H007 50 mg/kg): 4.1 ± 1.2 mmol/L | LDL-C ([2]; IMM-H007 100 mg/kg): 4.0 ± 0.7 mmol/L | LDL-C ([2]; IMM-H007 200 mg/kg): 3.3 ± 0.5 mmol/L | TC ([3]; IMM-H007 50 mg/kg): 2.8 ± 0.8 µmol/g protein | TG ([3]; IMM-H007 50 mg/kg): 3.6 ± 0.1 µmol/g protein | TC ([3]; IMM-H007 100 mg/kg): 2.4 ± 0.4 µmol/g protein | TG ([3]; IMM-H007 100 mg/kg): 3.3 ± 0.1 µmol/g protein | TC ([3]; IMM-H007 200 mg/kg): 1.8 ± 0.8 µmol/g protein | TG ([3]; IMM-H007 200 mg/kg): 2.8 ± 0.1 µmol/g protein | Effect on the liver as concluded from serum ALT and AST [4]: good hepatic protective effect | GPT ([5]; IMM-H007 50 mg/kg): 21.1 ± 5.2 U/L | GPT ([5]; IMM-H007 100 mg/kg): 20.9 ± 8.0 U/L | GPT ([5]; IMM-H007 200 mg/kg): 12.4 ± 3.1 U/L | GOT ([5]; IMM-H007 50 mg/kg): 9.4 ± 1.7 U/L | GOT ([5]; IMM-H007 100 mg/kg): 8.4 ± 2.3 U/L | GOT ([5]; IMM-H007 200 mg/kg): 7.2 ± 2.1 U/L
